How the values were obtained:
Assay type in all cases: cell-based, human
CD41a = test: Flow cytometry, platelet surface expression of CD41a
Description: (§1) Venous blood (8 ml) is collected in a plastic tube containing 2 ml of acid-citrate-dextrose (ACD) (7.3 g citric acid, 22.0 g sodium citrate.2H2O and 24.5 glucose in 1000 ml distilled water) and mixed well. The blood-ACD mixture is centrifuged at 1000 r.p.m. for 10 minutes at room temperature. The upper ⅔ of the platelet-rich plasma (PRP) is then collected and adjusted to pH=6.5 by adding ACD. The PRP is then centrifuged at 3000 r.p.m. for 10 minutes. The supernatant is removed and the platelet pellet is gently resuspended in 4 cc of the washing buffer (10 mM Tris/HCl, 0.15 M NaCl, 20 mM EDTA, pH=7.4). Platelets are washed in the washing buffer, and in TBS (10 mM Tris, 0.15 M NaCl, pH=7.4). All cells are then divided into the appropriate number of tubes. By way of example, if 9 different surface markers are evaluated, as described herein, then the cells should be divided into ten tubes, such that nine tubes containing washed platelets are incubated with 5 μl fluorescein isothiocyanate (FITC)-conjugated antibodies in the dark at +4° C. for 30 minutes, and one tube remains unstained and serves as a negative control. Surface antigen expression is measured with monoclonal murine anti-human antibodies, such as CD9 (p24); CD41a (IIb/IIIa, aIIbb3); CD42b (Ib); CD61(IIIa) (DAKO Corporation, Carpinteria, Calif.); CD49b (VLA-2, or a2b1); CD62p (P-selectin); CD31 (PECAM-1); CD 41b (IIb); and CD51/CD61 (vitronectin receptor, avb3) (PharMingen, San Diego Calif.), as the expression of these antigens on the cells is associated with platelet activation. After incubation, the cells are washed with TBS and resuspended in 0.25 ml of 1% paraformaldehyde. Samples are stored in the refrigerator at +4° C., and analyzed on a Becton Dickinson FACScan flow cytometer with laser output of 15 mw, excitation at 488 nm, and emission detection at 530±30 nm. The data can be collected and stored in list mode, and then analyzed using CELLQuest® software. FACS procedures are described in detail in, e.g., Gurbel, P. A. et al., J Amer Coll Cardiol 31: 1466-1473 (1998); Serebruany, V. L. et al., Am Heart J 136: 398-405 (1998); Gurbel, P. A. et al., Coron Artery Dis 9: 451-456 (1998) and Serebruany, V. L. et al., Arterioscl Thromb Vasc Biol 19: 153-158 (1999).
(§2) Four cc of blood is collected in a tube, containing 2 cc of acid-citrate-dextrose (ACD; 7.3 g citric acid, 22.0 g sodium citrate.2H2O and 24.5 glucose in 1000 ml distilled water) and mixed well. The buffer, TBS (10 mM Tris, 0.15 M NaCl, pH 7.4) and the following fluorescein isothiocyanate (FITC) conjugated monoclonal antibodies (PharMingen, San Diego, Calif., USA, and DAKO, Calif., USA) are removed from a refrigerator and allowed to warm at room temperature (RT) prior to their use. The non-limiting examples of antibodies that can be used include CD41 (IIb/IIIa), CD31 (PECAM-1), CD62p (P-selectin), and CD51/61 (Vitronectin receptor). For each subject, six amber tubes (1.25 ml) are one Eppendorf tube (1.5 ml) are obtained and marked appropriately 450 μl of TBS buffer is pipetted to the labeled Eppendorf tube. A patient's whole blood tube is inverted gently twice to mix, and 50 μl of whole blood is pipetted to the appropriately labeled Eppendorf tube. The Eppendorf tube is capped and the diluted whole blood is mixed by inverting the Eppendorf tube gently two times, followed by pipetting 50 μl of diluted whole blood to each amber tube. […] The samples are analyzed on a Becton Dickinson FACScan flow cytometer. […]

[1] = system: vitronectin receptor (CD51/CD61); test: Flow cytometry, platelet surface expression of CD51/61
Description: as §1, §2

P-selectin (CD62p) = test: Flow cytometry, platelet surface expression of CD62p
Description: as §1, §2

PECAM-1 (CD31) = test: Flow cytometry, platelet surface expression of CD31
Description: as §1, §2

PAR-1 (SPAN-12) = test: Flow cytometry, PAR-1 thrombin receptor expression (SPAN-12)
Description: as §1, §2

thrombospondin (CD36) = test: Flow cytometry, platelet surface expression of thrombospondin
Description: as §1, §2

GP Ib (CD42b) = test: Flow cytometry, platelet surface expression of CD42b
Description: as §1, §2

CD40-ligand (CD154) = test: Flow cytometry, platelet surface expression of CD154
Description: as §1, §2

## CC(C)(Sc1cc(C(C)(C)C)c(O)c(C(C)(C)C)c1)Sc1cc(C(C)(C)C)c(OC(=O)CCC(=O)O)c(C(C)(C)C)c1 [Compound A]
CD41a; preincubation 15 μg/mL
  Flow cytometry CD41a: 185.3 ± 21.3
CD41a; preincubation 30 μg/mL
  Flow cytometry CD41a: 170.3 ± 16.7
CD41a; preincubation 60 μg/mL
  Flow cytometry CD41a: 165.5 ± 16.7
CD41a; preincubation 90 μg/mL
  Flow cytometry CD41a: 160.9 ± 23.2
CD41a; pretreated samples
  Surface platelet expression of GP IIb/IIIa (CD41a) antigen: decreased
[1]
  vitronectin receptor (CD51/CD61): little or no effect
[1]; preincubation 15 μg/mL
  Flow cytometry CD51/61: 10.9 ± 2.1
[1]; preincubation 30 μg/mL
  Flow cytometry CD51/61: 11.4 ± 1.6
[1]; preincubation 60 μg/mL
  Flow cytometry CD51/61: 11.8 ± 2.1
[1]; preincubation 90 μg/mL
  Flow cytometry CD51/61: 10.2 ± 1.7
P-selectin (CD62p)
  P-selectin (CD62p): little or no effect
P-selectin (CD62p); preincubation 15 μg/mL
  Flow cytometry CD62p: 9.8 ± 1.8
P-selectin (CD62p); preincubation 30 μg/mL
  Flow cytometry CD62p: 10.2 ± 1.9
P-selectin (CD62p); preincubation 60 μg/mL
  Flow cytometry CD62p: 10.5 ± 1.8
P-selectin (CD62p); preincubation 90 μg/mL
  Flow cytometry CD62p: 9.7 ± 1.8
PECAM-1 (CD31); preincubation 15 μg/mL
  Flow cytometry CD31: 58.4 ± 5.7
PECAM-1 (CD31); preincubation 30 μg/mL
  Flow cytometry CD31: 57.8 ± 6.5
PECAM-1 (CD31); preincubation 60 μg/mL
  Flow cytometry CD31: 55.8 ± 7.1
PECAM-1 (CD31); preincubation 90 μg/mL
  Flow cytometry CD31: 50.9 ± 8.9
PECAM-1 (CD31); pretreated samples
  Surface platelet expression of PECAM-1 (CD31): decreased
PAR-1 (SPAN-12); preincubation 15 μg/mL
  Flow cytometry PAR-1 (SPAN-12): 25.0 ± 4.2
PAR-1 (SPAN-12); preincubation 30 μg/mL
  Flow cytometry PAR-1 (SPAN-12): 23.9 ± 3.8
PAR-1 (SPAN-12); preincubation 60 μg/mL
  Flow cytometry PAR-1 (SPAN-12): 24.4 ± 2.8
PAR-1 (SPAN-12); preincubation 90 μg/mL
  Flow cytometry PAR-1 (SPAN-12): 19.4 ± 3.5
PAR-1 (SPAN-12); pretreated samples
  PAR-1 thrombin receptor expression, intact epitope: reduced
Thrombospondin (CD36)
  thrombospondin (CD36): little or no effect
Thrombospondin (CD36); preincubation 15 μg/mL
  Flow cytometry Thrombospondin: 10.1 ± 1.9
Thrombospondin (CD36); preincubation 30 μg/mL
  Flow cytometry Thrombospondin: 11.0 ± 2.3
Thrombospondin (CD36); preincubation 60 μg/mL
  Flow cytometry Thrombospondin: 10.3 ± 1.9
Thrombospondin (CD36); preincubation 90 μg/mL
  Flow cytometry Thrombospondin: 9.6 ± 2.0
GP Ib (CD42b); preincubation 15 μg/mL
  Flow cytometry CD42b: 151.6 ± 11.2
GP Ib (CD42b); preincubation 30 μg/mL
  Flow cytometry CD42b: 142.8 ± 11.4
GP Ib (CD42b); preincubation 60 μg/mL
  Flow cytometry CD42b: 137.7 ± 8.9
GP Ib (CD42b); preincubation 90 μg/mL
  Flow cytometry CD42b: 111.2 ± 11.2
GP Ib (CD42b); pretreated samples
  Surface platelet expression of GP Ib (CD42b): decreased
CD40-ligand (CD154)
  CD40-ligand (CD154): little or no effect
CD40-ligand (CD154); preincubation 15 μg/mL
  Flow cytometry CD154: 6.6 ± 1.0
CD40-ligand (CD154); preincubation 30 μg/mL
  Flow cytometry CD154: 6.7 ± 0.9
CD40-ligand (CD154); preincubation 60 μg/mL
  Flow cytometry CD154: 6.8 ± 1.1
CD40-ligand (CD154); preincubation 90 μg/mL
  Flow cytometry CD154: 7.0 ± 1.1

— patent US20070213303A1, “Methods for reducing platelet activation and for the treatment of thrombotic events” (priority 2005, published 2007)
